Key:
[1] = target: T1, Non-receptor tyrosine-protein kinase TYK2 (Homo sapiens, UniProt P29597); test: Inhibition of fluorescein-labeled kinase tracer binding to His-TVMV-fused TYK2 JH2 domain (575 to 869 residues) (unknown origin) measured after 90 mins by HTRF assay
JAK2/TYK2 = JAK2/TYK2 (Homo sapiens, UniProt O60674+P29597); test: Inhibition of TYK2/JAK2 in IL23-stimulated human Kit225 cells by steady-glo luciferase assay
JAK1/TYK2 = JAK1/TYK2 (Homo sapiens, UniProt P23458+P29597); test: Inhibition of TYK2/JAK1 in IFNalpha-stimulated human Kit225 cells by steady-glo luciferase assay
[2] = Metabolic stability in rat liver microsomes assessed as parent compound remaining after 10 mins; assay type: ADME, Microsome; details: read-out: Stability
[3] = Metabolic stability in human liver microsomes assessed as parent compound remaining after 10 mins; assay type: ADME, Microsome; details: read-out: Stability
[4] = target: 3',5'-cyclic-AMP phosphodiesterase 4D (Homo sapiens, UniProt Q08499); test: Inhibition of [3H]cAMP binding to recombinant human His-Tb fused PDE4D2 (86 to 413 residues) expressed in Escherichia coli using [3H]cAMP as substrate preincubated for 10 mins followed by [3H]cAMP addition and measured after 1 hr by scintillation proximity assay
[5] = Metabolic stability in mouse liver microsomes assessed as parent compound remaining after 10 mins; assay type: ADME, Microsome; details: read-out: Stability
[6] = Efflux ratio of permeability in human Caco2; assay type: ADME, cell-based; details: Caco-2
[7] = target: T1, Non-receptor tyrosine-protein kinase TYK2; test: Inhibition of TYK2 JH2 domain in human whole blood assessed as inhibition of IFNalpha-induced STAT5 phosphorylation preincubated for 1 hr followed by IFNalpha stimulation and measured after 15 mins by fluorescence assay; assay type: tissue-based
[8] = Permeability across apical to basolateral side in human Caco2 cells; assay type: ADME, cell-based; details: Caco-2, read-out: permeability
[9] = target: T1, Non-receptor tyrosine-protein kinase TYK2; test: Inhibition of TYK2 JH1 domain (unknown origin)
JAK2/JAK1 = JAK2/JAK1 (Homo sapiens, UniProt O60674+P23458); test: Inhibition of JAK1/JAK2 (unknown origin) in GM-CSF stimulated cells by cell based assay
JAK3/JAK1 = JAK3/JAK1 (Homo sapiens, UniProt P23458+P52333); test: Inhibition of JAK1/JAK3 (unknown origin) in IL-2 stimulated cells by cell based assay
[10] = target: Non-receptor tyrosine-protein kinase TYK2 (Mus musculus, UniProt Q9R117); test: Inhibition of TYK2 JH2 domain in mouse whole blood assessed as inhibition of IFNalpha-induced STAT1 phosphorylation preincubated for 1 hr followed by IFNalpha stimulation and measured after 15 mins by fluorescence assay; assay type: tissue-based
[11] = target: Tyrosine-protein kinase JAK1 (Homo sapiens, UniProt P23458); test: Inhibition of JAK1 JH1 domain (unknown origin)
[12] = target: Tyrosine-protein kinase JAK2 (Homo sapiens, UniProt O60674); test: Inhibition of JAK2 JH1 domain (unknown origin)
[13] = target: Mast/stem cell growth factor receptor Kit (Homo sapiens, UniProt P10721); test: Inhibition of cKIT (unknown origin)
[14] = target: Voltage-gated inwardly rectifying potassium channel KCNH2 (Homo sapiens, UniProt Q12809); test: Inhibition of human ERG by fluorescence polarization assay

Chain of JAK3/JAK1 (P52333 whole entry, the tested form may be a part): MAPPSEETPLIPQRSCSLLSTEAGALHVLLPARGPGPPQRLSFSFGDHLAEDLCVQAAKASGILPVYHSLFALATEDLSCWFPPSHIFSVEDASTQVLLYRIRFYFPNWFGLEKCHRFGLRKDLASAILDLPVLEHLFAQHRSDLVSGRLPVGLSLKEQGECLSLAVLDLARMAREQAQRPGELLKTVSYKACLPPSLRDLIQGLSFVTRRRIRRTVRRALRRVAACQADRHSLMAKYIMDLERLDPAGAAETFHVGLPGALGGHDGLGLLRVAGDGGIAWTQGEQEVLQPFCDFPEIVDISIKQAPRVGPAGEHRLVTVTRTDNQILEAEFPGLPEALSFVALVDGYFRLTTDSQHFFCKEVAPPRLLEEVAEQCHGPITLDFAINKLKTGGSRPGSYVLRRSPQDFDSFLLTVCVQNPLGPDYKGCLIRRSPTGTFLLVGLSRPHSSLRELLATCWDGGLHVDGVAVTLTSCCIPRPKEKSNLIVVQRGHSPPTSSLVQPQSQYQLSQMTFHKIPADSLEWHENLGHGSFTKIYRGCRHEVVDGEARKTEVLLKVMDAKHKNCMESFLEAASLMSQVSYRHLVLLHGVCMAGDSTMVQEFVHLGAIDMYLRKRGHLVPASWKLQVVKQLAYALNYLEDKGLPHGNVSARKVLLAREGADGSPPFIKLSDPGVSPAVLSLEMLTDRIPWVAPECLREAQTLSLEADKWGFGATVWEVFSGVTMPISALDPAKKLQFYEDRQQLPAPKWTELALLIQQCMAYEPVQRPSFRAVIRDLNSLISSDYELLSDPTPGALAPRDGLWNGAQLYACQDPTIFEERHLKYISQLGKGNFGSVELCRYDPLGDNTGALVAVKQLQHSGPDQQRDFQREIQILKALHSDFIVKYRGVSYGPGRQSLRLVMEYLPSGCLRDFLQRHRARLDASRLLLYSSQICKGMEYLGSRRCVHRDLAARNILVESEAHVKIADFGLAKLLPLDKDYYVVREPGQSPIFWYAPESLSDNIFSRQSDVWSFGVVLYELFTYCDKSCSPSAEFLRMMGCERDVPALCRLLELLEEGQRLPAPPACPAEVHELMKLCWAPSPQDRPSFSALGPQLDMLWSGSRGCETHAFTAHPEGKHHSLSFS
Chain of JAK3/JAK1 (P23458 whole entry, the tested form may be a part): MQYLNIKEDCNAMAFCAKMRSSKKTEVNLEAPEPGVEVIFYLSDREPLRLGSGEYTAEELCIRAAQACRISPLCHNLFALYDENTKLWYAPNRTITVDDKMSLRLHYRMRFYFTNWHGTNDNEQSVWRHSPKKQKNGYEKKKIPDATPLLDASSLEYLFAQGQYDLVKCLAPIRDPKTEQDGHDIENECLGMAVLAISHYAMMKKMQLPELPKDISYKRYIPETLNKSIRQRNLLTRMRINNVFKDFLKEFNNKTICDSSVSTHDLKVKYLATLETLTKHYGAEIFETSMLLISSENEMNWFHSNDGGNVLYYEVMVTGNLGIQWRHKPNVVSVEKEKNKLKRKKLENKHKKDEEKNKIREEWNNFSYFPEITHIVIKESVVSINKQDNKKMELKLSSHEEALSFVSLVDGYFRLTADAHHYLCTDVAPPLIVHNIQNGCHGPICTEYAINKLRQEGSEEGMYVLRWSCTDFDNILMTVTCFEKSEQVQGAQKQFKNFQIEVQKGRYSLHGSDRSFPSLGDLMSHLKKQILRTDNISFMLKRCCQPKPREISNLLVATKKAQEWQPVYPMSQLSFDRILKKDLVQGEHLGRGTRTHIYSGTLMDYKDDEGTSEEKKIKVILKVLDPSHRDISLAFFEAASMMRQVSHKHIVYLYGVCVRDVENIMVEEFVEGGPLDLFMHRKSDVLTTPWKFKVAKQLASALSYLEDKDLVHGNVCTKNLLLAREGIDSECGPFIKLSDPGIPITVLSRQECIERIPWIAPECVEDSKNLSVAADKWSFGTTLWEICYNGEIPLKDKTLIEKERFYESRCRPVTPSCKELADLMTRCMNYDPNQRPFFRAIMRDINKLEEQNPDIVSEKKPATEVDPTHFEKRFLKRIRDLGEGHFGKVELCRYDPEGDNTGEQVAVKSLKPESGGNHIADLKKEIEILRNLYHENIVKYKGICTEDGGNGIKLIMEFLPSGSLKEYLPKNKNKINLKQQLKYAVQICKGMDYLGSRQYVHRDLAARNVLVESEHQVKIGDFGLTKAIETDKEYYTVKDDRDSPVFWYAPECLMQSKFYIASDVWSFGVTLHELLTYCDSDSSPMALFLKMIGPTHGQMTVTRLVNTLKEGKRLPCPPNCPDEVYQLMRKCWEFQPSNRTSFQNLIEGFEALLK
Chain of 3',5'-cyclic-AMP phosphodiesterase 4D (Q08499 whole entry, the tested form may be a part): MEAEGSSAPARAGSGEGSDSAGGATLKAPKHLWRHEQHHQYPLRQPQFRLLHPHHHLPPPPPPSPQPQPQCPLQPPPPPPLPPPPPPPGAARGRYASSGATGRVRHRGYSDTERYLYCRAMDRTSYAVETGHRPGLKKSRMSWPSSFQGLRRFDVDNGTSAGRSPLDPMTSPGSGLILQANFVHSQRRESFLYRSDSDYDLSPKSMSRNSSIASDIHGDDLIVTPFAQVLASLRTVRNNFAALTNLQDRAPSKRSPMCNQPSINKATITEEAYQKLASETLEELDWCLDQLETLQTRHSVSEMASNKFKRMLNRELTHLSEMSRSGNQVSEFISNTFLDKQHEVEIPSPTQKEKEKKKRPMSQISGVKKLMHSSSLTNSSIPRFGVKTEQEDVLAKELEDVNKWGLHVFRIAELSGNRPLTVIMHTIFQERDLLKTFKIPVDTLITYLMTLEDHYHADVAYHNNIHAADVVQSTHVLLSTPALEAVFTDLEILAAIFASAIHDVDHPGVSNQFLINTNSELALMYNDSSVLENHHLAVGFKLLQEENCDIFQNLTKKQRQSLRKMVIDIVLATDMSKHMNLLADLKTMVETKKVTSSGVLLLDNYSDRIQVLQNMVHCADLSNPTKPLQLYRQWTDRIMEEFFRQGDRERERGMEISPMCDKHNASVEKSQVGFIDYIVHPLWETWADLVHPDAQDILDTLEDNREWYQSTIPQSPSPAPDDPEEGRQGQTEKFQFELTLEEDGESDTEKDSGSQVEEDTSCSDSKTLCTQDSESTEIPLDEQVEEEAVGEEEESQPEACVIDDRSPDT
Chain of Tyrosine-protein kinase JAK2 (O60674 whole entry, the tested form may be a part): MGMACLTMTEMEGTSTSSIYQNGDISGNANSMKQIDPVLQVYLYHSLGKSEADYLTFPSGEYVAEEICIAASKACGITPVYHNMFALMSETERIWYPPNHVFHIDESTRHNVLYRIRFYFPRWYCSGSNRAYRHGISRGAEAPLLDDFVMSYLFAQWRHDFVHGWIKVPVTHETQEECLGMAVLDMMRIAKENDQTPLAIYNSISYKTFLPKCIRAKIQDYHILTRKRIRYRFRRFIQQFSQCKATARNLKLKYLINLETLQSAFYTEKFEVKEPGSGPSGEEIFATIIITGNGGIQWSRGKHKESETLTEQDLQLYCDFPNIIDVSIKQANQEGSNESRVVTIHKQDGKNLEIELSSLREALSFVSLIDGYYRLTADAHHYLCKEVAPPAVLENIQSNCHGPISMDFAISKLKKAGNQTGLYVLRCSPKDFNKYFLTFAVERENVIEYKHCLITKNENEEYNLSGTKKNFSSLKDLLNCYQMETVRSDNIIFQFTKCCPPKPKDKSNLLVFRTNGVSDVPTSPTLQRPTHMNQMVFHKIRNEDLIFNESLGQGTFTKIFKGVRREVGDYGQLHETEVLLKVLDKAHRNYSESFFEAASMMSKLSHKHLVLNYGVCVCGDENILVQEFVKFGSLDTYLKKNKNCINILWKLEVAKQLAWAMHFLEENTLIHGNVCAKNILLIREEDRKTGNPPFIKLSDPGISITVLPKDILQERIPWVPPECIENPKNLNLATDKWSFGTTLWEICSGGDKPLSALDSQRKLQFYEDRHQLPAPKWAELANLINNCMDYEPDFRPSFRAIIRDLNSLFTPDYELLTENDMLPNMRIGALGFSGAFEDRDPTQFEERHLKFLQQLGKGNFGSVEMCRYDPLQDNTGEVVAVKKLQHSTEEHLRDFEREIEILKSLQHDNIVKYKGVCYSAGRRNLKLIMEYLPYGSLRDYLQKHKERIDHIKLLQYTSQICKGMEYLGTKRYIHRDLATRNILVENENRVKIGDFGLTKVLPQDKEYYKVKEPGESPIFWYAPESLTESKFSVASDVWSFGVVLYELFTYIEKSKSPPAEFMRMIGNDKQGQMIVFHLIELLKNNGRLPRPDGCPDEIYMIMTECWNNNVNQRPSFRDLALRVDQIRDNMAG
Chain of JAK2/JAK1 (P23458 whole entry): as the sequence (P23458 whole entry, the tested form may be a part) above
Chain of JAK2/JAK1 (O60674 whole entry): as the sequence (O60674 whole entry, the tested form may be a part) above
Chain of Tyrosine-protein kinase JAK1 (P23458 whole entry, the tested form may be a part): as the sequence (P23458 whole entry, the tested form may be a part) above

Structure (SMILES)	IC50 [1]	IC50 (JAK2/TYK2)	IC50 (JAK1/TYK2)	remaining at 10 min [2]	remaining at 10 min [3]	IC50 [4]	remaining at 10 min [5]	efflux ratio [6]	IC50 [7]	Papp A→B [8]	IC50 [9]	IC50 (JAK2/JAK1)	IC50 (JAK3/JAK1)	IC50 [10]	IC50 [11]	IC50 [12]	IC50 [13]	IC50 [14]
CNC(=O)c1cnc(Nc2ncccn2)cc1Nc1ccccc1C(N)=O	60 nM	> 12500 nM	> 12500 nM															
CNC(=O)c1cnc(Nc2ccccn2)cc1Nc1ccccc1C(N)=O	1.6 nM	280 nM	310 nM															
CCS(=O)(=O)c1ccccc1Nc1cc(Nc2ccc(F)cn2)ncc1C(=O)NC	8 nM	1900 nM	1000 nM	76%	91%	4600 nM	43%	6	4400 nM	5.3 ×10⁻⁶ cm/s								
CS(=O)(=O)c1ccccc1Nc1cc(Nc2ccc(F)cn2)ncc1C(N)=O	0.32 nM	46 nM	35 nM	3%	77%		80%		33 nM		42 nM	260 nM	960 nM	83 nM	43 nM	18 nM		
CCNC(=O)c1cnc(Nc2ccc(F)cn2)cc1Nc1ccccc1C(N)=O	13 nM	4100 nM	2500 nM								> 2000 nM	> 12500 nM	> 12500 nM		> 2000 nM	> 2000 nM		
CNC(=O)c1cnc(Nc2ccc(F)cn2)cc1Nc1ccccc1OC	5.2 nM	310 nM	510 nM	28%	52%	9200 nM	35%	0.4	3300 nM	26.7 ×10⁻⁶ cm/s								
CNC(=O)c1cnc(Nc2ccc(C)nn2)cc1Nc1ccccc1S(C)(=O)=O		490 nM	320 nM					> 12	630 nM	< 1.5 ×10⁻⁶ cm/s							> 2000 nM	43000 nM
CNC(=O)c1cnc(Nc2ccc(F)cn2)cc1Nc1ccccc1SC	1.8 nM	330 nM	240 nM	9%	36%	4400 nM	30%	0.5	3100 nM	7.9 ×10⁻⁶ cm/s								
CNC(=O)c1cnc(Nc2ccccc2)cc1Nc1ccccc1C(N)=O	33 nM	6900 nM	7600 nM															
NC(=O)c1ccccc1Nc1cc(Nc2ccc(F)cn2)ncc1C(=O)NC1CC1	33 nM	3300 nM	5600 nM								> 2000 nM	> 12500 nM	> 12500 nM		> 2000 nM	> 2000 nM		
CCCC(=O)Nc1cc(Nc2ccccc2S(C)(=O)=O)c(C(=O)NC)cn1		2000 nM	2700 nM						2500 nM								> 2000 nM	
CNC(=O)c1cnc(Nc2cc(C)ccn2)cc1Nc1ccccc1S(C)(=O)=O		27 nM	21 nM					9	190 nM	6.5 ×10⁻⁶ cm/s							> 2000 nM	16000 nM
CNC(=O)c1cnc(NC(=O)C(C)C)cc1Nc1ccccc1S(C)(=O)=O		1100 nM	4400 nM						5200 nM								> 2000 nM	
CNC(=O)c1cnc(Nc2ccc(F)cn2)cc1Nc1ccccc1	11 nM	5600 nM	5200 nM	65%	51%	4500 nM	37%	0.5	> 10000 nM	29.3 ×10⁻⁶ cm/s								
CN(C)C(=O)c1cnc(Nc2ccc(F)cn2)cc1Nc1ccccc1C(N)=O	87 nM	11000 nM	12000 nM								> 2000 nM	> 12500 nM	> 12500 nM		> 2000 nM	> 2000 nM		
CNC(=O)c1cnc(Nc2ccc(OC)cn2)cc1Nc1ccccc1S(C)(=O)=O										2.9 ×10⁻⁶ cm/s							830 nM	
CNC(=O)c1cnc(Nc2ncccc2F)cc1Nc1ccccc1C(N)=O	5.9 nM	1300 nM	1800 nM															

From ChEMBL document CHEMBL4414548 (J Med Chem, 2019)
